Assay results: US20080206149A1, “METHOD, DYE AND MEDICAMENT FOR STAINING THE INTERNAL LIMITING MEMBRANE, EPIRETINAL MEMBRANE, THE VITREOUS AND/OR THE CAPSULE OF AN EYE” (LUDWIG-MAXIMILIANS-UNIVERSITAT MUNCHEN, priority 2005, published 2008)
Entries after “also recorded” stand apart in the source; their conditions may differ.

Key:
[1] = Light absorbing properties (UV/VIS/NIR spectrometer); assay type: physicochemical; conditions: measured up to a content of 0.05% dye
Protocol: Light absorption was measured in 0.05% solutions, with BSS plus as a solvent medium. Light absorption was measured instantly after preparation of a stock solution of the dye using a UV/VIS/NIR Spectrometer (Lambda 900, Perkin Elmer) between 200 and 1000 nm.

primary RPE cells [2] = test: Life-dead assay (propidium iodide / Hoechst 33342), primary RPE cells; assay type: cell-based; conditions: primary RPE cells, 0.2% and 0.02% dye, 24 hours after treatment, compared to BSS plus
Protocol: Invest Ophthalmol Vis Sci 2002; 43: 3575-82.
Confluent RPE and ARPE-19 cells were prepared and treated as described above. Cell viability was quantified based on a two-color fluorescence assay in which the nuclei of nonviable cells appear red because of staining by the membrane-impermeable dye propidium iodide (Sigma), whereas the nuclei of all cells were stained with the membrane-permeable dye Hoechst 33342 (Intergen, Purchase, N.Y.). […] For evaluation of cell viability, cells were washed in PBS and incubated with 2.0 μg/mL propidium iodide and 1.0 μg/mL Hoechst 33342 for 20 minutes at 37° C. Subsequently, cells were analyzed with an epifluorescence microscope (Axioskop; Zeiss, Göttingen, Germany). The labeled nuclei were then counted in fluorescence photomicrographs, and dead cells were expressed as a percentage of total nuclei in the field. The data are based on counts from three experiments performed in duplicate wells, with three to five documented representative fields per well.

vitreous = test: Vitrectomy for retinal detachment (Example 3); assay type: in vivo, humans
Text: This study was approved by the local ethics committee and Institutional Review Board (IRB) and written informed consent was obtained from all patients. Six consecutive patients with idiopathic macular hole, 3 males and 3 females with a mean age of 68 were included. Holes were graded as stage 2 (n=3), stage 3 (n=2) and stage 4 (n=1). The dye was also used in four patients with retinal detachments, 2 females and 2 males with a mean age of 57 years.
Pre- and postoperatively, all patients underwent a complete clinical examination including measurement of best corrected visual acuity (VA), slit lamp examination, tonometry, and funduscopy using a 78 diopter lens (Volk Optical, Mentor, Ohio, USA). In macular hole patients, we additionally performed optical coherence tomography (OCT) (Stratus-OCT, Carl Zeiss Meditec, Jena, Germany), Goldmann perimetry, multifocal electroretinogram (ERG) and fundus photographs. Patients were seen one day before surgery and then in six weeks intervals. Postoperatively, ERG and Goldmann perimetry were performed at the six weeks follow-up visit and were not repeated if unremarkable. […]
The dye was applied as follows: During pars plana vitrectomy for a macular hole a fluid air-exchange was performed prior to dye injection to achieve a maximum dye concentration on the retinal surface. […] The staining characteristics were then evaluated by the surgeon.

[3] = test system: epiretinal membranes, ILM and vitreous; test: Vitreoretinal surgery for macular pucker (Example 4); assay type: in vivo, human; conditions: for staining effect of ERM: washed out after one minute
Text: The study was approved by the local ethics committee and Institutional Review Board, and written informed consent was obtained from all patients. Thirteen patients with macular pucker, seven males and six females with a mean age of 65, were included in the present study.
Preoperatively and postoperatively, patients underwent a complete clinical examination including measurement of best corrected visual acuity (VA), slit-lamp examination, tonometry, funduscopy using a 78 diopter lens (Volk Optical, Mentor, Ohio, USA), fluorescein angiography, OCT (Stratus), Goldmann perimetry, multifocal ERG and fundus photograph. Patients were seen one day before surgery and then in six-week intervals. Postoperatively, ERG and Goldmann perimetry were performed at the six-week follow-up visit and were not repeated if unremarkable.
Bromphenol blue was dissolved and diluted using BSS plus and sterilised using a 0.22 μm syringe filter and dye concentrations of 0.2% were then injected into the eye.
Vitrectomy consisted of a standard three-port pars plana vitrectomy as described in previous reports (Haritoglou C., Gandorfer A., Gass C. A., et al., “Indocyanine green-assisted peeling of the internal limiting membrane in macular hole surgery affects visual outcome: a clinicopathologic correlation”, Am J. Ophthalmol 2002; 134:836-41; Haritoglou C., Gandorfer A., Gass C. A., et al.: “The effect of indocyanine-green on functional outcome of macular pucker surgery, Am J. Ophthalmol 2003; 135:328-37). Before injection of the dye, a fluid air-exchange was performed to avoid an uncontrolled dye distribution. Then, a few drops of the dye were applied over the macular area. After a period of one minute, the dye was completely washed out by irrigation. The staining characteristics were then evaluated by the surgeon and an additional examiner (CH). This was followed by removal of epiretinal tissue and the ILM using an end-gripping forceps. After the removal of epiretinal tissue, no second dye injection was performed in this series of patients.
All epiretinal tissue removed during surgery was harvested and immediately prepared for ultrastructural analysis. Ultrathin sections were obtained from all specimens, contrasted with uranyl acetate and lead citrate, and analysed using a Zeiss EM 9 electron microscope (Zeiss Jena, Germany).

primary RPE cells [4] = test: MTT assay, primary RPE cells; conditions: 0.2% and 0.02% dye, 10 minutes exposure, compared to BSS plus control
Text: In brief, whole eyes were thoroughly cleansed in 0.9% NaCl solution, immersed in 5% polyvinyl pyrrolidone iodine, and rinsed again in the sodiumchloride solution. The anterior segment from each donor eye was removed and the posterior poles were examined with the aid of a binocular stereomicroscope to confirm the absence of gross retinal disease. Next, the neural retinas were carefully peeled away from the RPE-choroid-sclera using fine forceps. The eye cup was rinsed with Ca^2+ and Mg^2+-free Hank's balanced salt solution, and filled with 0.25% trypsin (GIBCO, Karlsruhe, Germany) for 30 min at 37° C. The trypsin was carefully aspirated and replaced with Dulbecco's modified eagles medium (DMEM, Biochrom, Berlin, Germany) supplemented with 20% fetal calf serum (FCS, Biochrom). Using a pipette, the media was gently agitated, releasing the RPE into the media by avoiding damage to Bruch's membrane. The RPE cell solution was transferred to a 50 ml flask (Falcon, Wiesbaden, Germany) containing 20 ml of DMEM (Biochrom) supplemented with 20% FCS (Biochrom) and maintained at 37° C. and 5% carbon dioxide. […] After having grown to confluency (100%), primary RPE cells were subcultured and maintained in DMEM (Biochrom) supplemented with 10% FCS (Biochrom) at 37° C. and 5% carbon dioxide. Primary RPE of passage 3-6 and ARPE-19 cells were used for experiments.
For exposure of dyes RPE and ARPE-19 cells were kept for 24 hours under serum free conditions. After washing cells three times with PBS, cells were incubated for 10 minutes with 300 μl of BSS plus containing 0.2% or 0.02% of dye, respectively. […] The dye was then removed by carefully rinsing cells with BSS plus three times. After 24 hours incubation with serum containing media the cell proliferation assay was performed. […]
The tetrazolium dye-reduction assay (MTT; 3-[4,5-dimethylthiazol-2-yl]-2,5-diphenyl tetrazolium bromide;) was used to determine cell survival rate. […] Absorption was measured by a scanning multiwell spectrophotometer at 550 nm (Molecular Probes, Garching, Germany). […]

[5] = 0.2%, listed as Bromphenol blue
[6] = 0.2%, listed as bromphenol blue

SMILES: O=S1(=O)OC(c2cc(Br)c(O)c(Br)c2)(c2cc(Br)c(O)c(Br)c2)c2ccccc21 [Bromophenol blue, Bromophenole blue]
- position of the long wavelength maximum, influence of dye concentration [1]: not influenced by the dye concentration
- cell viability, nuclei of nonviable cells labeled with propidium iodide (primary RPE cells [2]): did not affect cell survival
- identification of peripheral vitreous remnants at the vitreous base and retinal breaks (vitreous; 0.2%, injected onto PFCL bubble): helped to identify peripheral remnants of vitreous
- reattachment of the retina (vitreous; in vivo): could be achieved in all cases
- staining of the ILM ([3]; 0.2%, patients with ERM): did not observe sufficient staining of the ILM
- staining effect of ERM [3, 5]: varied depending on the thickness of the ERM
- staining effect of ERM [3, 6]: good staining properties
- staining of remnant vitreous at the vitreous base [3, 5]: could he seen in all cases; also recorded: strong staining
- staining of remnant vitreous at the vitreous base [3, 6]: good staining properties
- histology: cellular integrity of epiretinal cells ([3]; epiretinal membranes of 8 patients, electron microscopy): maintained their cellular integrity
- amplitudes in postoperative ERG examinations ([3]; in vivo): no affection of the amplitudes
- dye-related complications in any functional test performed ([3]; in vivo): No dye-related complications
- loss of VA ([3]; in vivo): No loss of VA
- peripheral visual field defects attributable to the dye ([3]; in vivo): nor did we observe peripheral visual field defects
- safety profile intraoperatively and during follow-up ([3]; in vivo): very good safety profile
- VA postoperatively ([3]; overall patients): 0.32
- VA preoperatively ([3]; overall patients): 0.16
- cell survival of primary RPE cells (MTT) (primary RPE cells [4]): no influence on cell survival
